# Reference: ChEMBL document CHEMBL5236585, “Design, synthesis and antifungal activities of novel triazole derivatives with selenium-containing hydrophobic side chains” (Bioorg Med Chem Lett, 2022)
# Tests used:
# Nakaseomyces glabratus = assay: Antifungal activity against clinical isolate Candida glabrata assessed as inhibition of fungal growth by microdilution method; format: functional
# [1] = molecular target: T1, Lanosterol 14-alpha demethylase (Candida albicans (strain SC5314 / ATCC MYA-2876) (Yeast), UniProt P10613); assay: Inhibition of CYP51 in Candida albicans SC5314 assessed as ergosterol level at 32 ug/ml by GC-MS analysis (reference value: 98.3 %); design: scale not given: the % may be the effect or the level left; conditions: at 32 µg/mL
# T1 sequence (P10613 whole entry): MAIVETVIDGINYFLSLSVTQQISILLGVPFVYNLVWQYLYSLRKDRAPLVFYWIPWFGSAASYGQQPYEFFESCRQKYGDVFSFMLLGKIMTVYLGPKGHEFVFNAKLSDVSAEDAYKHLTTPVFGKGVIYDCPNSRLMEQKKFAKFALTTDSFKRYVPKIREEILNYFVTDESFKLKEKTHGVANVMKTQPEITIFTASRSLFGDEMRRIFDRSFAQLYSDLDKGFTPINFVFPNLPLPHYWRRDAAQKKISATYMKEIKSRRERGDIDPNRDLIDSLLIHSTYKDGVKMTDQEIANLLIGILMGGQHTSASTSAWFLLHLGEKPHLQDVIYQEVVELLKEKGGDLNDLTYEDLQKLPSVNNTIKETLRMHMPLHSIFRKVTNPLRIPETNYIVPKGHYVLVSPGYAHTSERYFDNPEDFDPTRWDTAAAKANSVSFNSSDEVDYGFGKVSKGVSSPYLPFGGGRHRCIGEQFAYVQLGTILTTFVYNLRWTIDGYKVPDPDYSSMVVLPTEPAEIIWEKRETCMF
# [2] = molecular target: T1, Lanosterol 14-alpha demethylase; assay: Inhibition of CYP51 in Candida albicans SC5314 assessed as eburicol level at 16 ug/ml by GC-MS analysis (reference value: 0 %); design: scale not given: the % may be the effect or the level left; conditions: at 16 µg/mL
# [3] = molecular target: T1, Lanosterol 14-alpha demethylase; assay: Inhibition of CYP51 in Candida albicans SC5314 assessed as lanosterol level at 32 ug/ml by GC-MS analysis (reference value: 1.7 %); design: scale not given: the % may be the effect or the level left; conditions: at 32 µg/mL
# [4] = molecular target: T1, Lanosterol 14-alpha demethylase; assay: Inhibition of CYP51 in Candida albicans SC5314 assessed as lanosterol level at 8 ug/ml by GC-MS analysis (reference value: 1.7 %); design: scale not given: the % may be the effect or the level left; conditions: at 8 µg/mL
# HL-60 = assay: Cytotoxicity against human HL-60 cells assessed as inhibition of cell growth by MTT assay; format: functional, cell-based
# Candida tropicalis = assay: Antifungal activity against Candida tropicalis CGMCC 2.3739 assessed as inhibition of fungal growth by microdilution method; format: functional
# Candida parapsilosis = assay: Antifungal activity against Candida parapsilosis 22019 assessed as inhibition of fungal growth by microdilution method; format: functional; conditions: Lodderomyces parapsilosis
# [5] = molecular target: T1, Lanosterol 14-alpha demethylase; assay: Inhibition of CYP51 in Candida albicans SC5314 assessed as lanosterol level at 64 ug/ml by GC-MS analysis (reference value: 1.7 %); design: scale not given: the % may be the effect or the level left; conditions: at 64 µg/mL
# MDA-MB-231 = assay: Cytotoxicity against human MDA-MB-231 cells assessed as inhibition of cell growth by MTT assay; format: functional, cell-based
# [6] = molecular target: T1, Lanosterol 14-alpha demethylase; assay: Inhibition of CYP51 in Candida albicans SC5314 assessed as obtusifoliol level at 8 ug/ml by GC-MS analysis (reference value: 0 %); design: scale not given: the % may be the effect or the level left; conditions: at 8 µg/mL
# PC-3 = assay: Cytotoxicity against human PC-3 cells assessed as inhibition of cell growth by MTT assay; format: functional, cell-based
# Aspergillus fumigatus = assay: Antifungal activity against Aspergillus fumigatus CGMCC 3.7795 assessed as inhibition of fungal growth by microdilution method; format: functional
# Candida albicans [7] = assay: Antifungal activity against Candida albicans ATCC SC5314 assessed as inhibition of fungal growth by microdilution method; format: functional
# [8] = molecular target: T1, Lanosterol 14-alpha demethylase; assay: Inhibition of CYP51 in Candida albicans SC5314 assessed as obtusifoliol level at 64 ug/ml by GC-MS analysis (reference value: 0 %); design: scale not given: the % may be the effect or the level left; conditions: at 64 µg/mL
# [9] = molecular target: T1, Lanosterol 14-alpha demethylase; assay: Inhibition of CYP51 in Candida albicans SC5314 assessed as ergosterol level at 64 ug/ml by GC-MS analysis (reference value: 98.3 %); design: scale not given: the % may be the effect or the level left; conditions: at 64 µg/mL
# [10] = molecular target: T1, Lanosterol 14-alpha demethylase; assay: Inhibition of CYP51 in Candida albicans SC5314 assessed as eburicol level at 64 ug/ml by GC-MS analysis (reference value: 0 %); design: scale not given: the % may be the effect or the level left; conditions: at 64 µg/mL
# Cryptococcus neoformans = assay: Antifungal activity against Cryptococcus neoformans CGMCC 2.3161 assessed as inhibition of fungal growth by microdilution method; format: functional
# [11] = molecular target: T1, Lanosterol 14-alpha demethylase; assay: Inhibition of CYP51 in Candida albicans SC5314 assessed as eburicol level at 8 ug/ml by GC-MS analysis (reference value: 0 %); design: scale not given: the % may be the effect or the level left; conditions: at 8 µg/mL
# Pichia kudriavzevii = assay: Antifungal activity against Candida krusei AS 2.1045 assessed as inhibition of fungal growth by microdilution method; format: functional
# [12] = molecular target: T1, Lanosterol 14-alpha demethylase; assay: Inhibition of CYP51 in Candida albicans SC5314 assessed as ergosterol level at 16 ug/ml by GC-MS analysis (reference value: 98.3 %); design: scale not given: the % may be the effect or the level left; conditions: at 16 µg/mL
# Candida albicans [13] = assay: Antifungal activity against Candida albicans CPCC 400616 assessed as inhibition of fungal growth by microdilution method; format: functional
# [14] = molecular target: T1, Lanosterol 14-alpha demethylase; assay: Inhibition of CYP51 in Candida albicans SC5314 assessed as eburicol level at 32 ug/ml by GC-MS analysis (reference value: 0 %); design: scale not given: the % may be the effect or the level left; conditions: at 32 µg/mL
# [15] = molecular target: T1, Lanosterol 14-alpha demethylase; assay: Inhibition of CYP51 in Candida albicans SC5314 assessed as ergosterol level at 8 ug/ml by GC-MS analysis (reference value: 98.3 %); design: scale not given: the % may be the effect or the level left; conditions: at 8 µg/mL
# [16] = molecular target: T1, Lanosterol 14-alpha demethylase; assay: Inhibition of CYP51 in Candida albicans SC5314 assessed as obtusifoliol level at 32 ug/ml by GC-MS analysis (reference value: 0 %); design: scale not given: the % may be the effect or the level left; conditions: at 32 µg/mL
# [17] = molecular target: T1, Lanosterol 14-alpha demethylase; assay: Inhibition of CYP51 in Candida albicans SC5314 assessed as obtusifoliol level at 16 ug/ml by GC-MS analysis (reference value: 0 %); design: scale not given: the % may be the effect or the level left; conditions: at 16 µg/mL
# [18] = molecular target: T1, Lanosterol 14-alpha demethylase; assay: Inhibition of CYP51 in Candida albicans SC5314 assessed as lanosterol level at 16 ug/ml by GC-MS analysis (reference value: 1.7 %); design: scale not given: the % may be the effect or the level left; conditions: at 16 µg/mL
# [19] = molecular target: T1, Lanosterol 14-alpha demethylase; assay: Inhibition of CYP51 in Candida albicans SC5314 assessed as eburicol level at 1 ug/ml by GC-MS analysis (reference value: 0 %); design: scale not given: the % may be the effect or the level left; conditions: at 1 µg/mL
# [20] = molecular target: T1, Lanosterol 14-alpha demethylase; assay: Inhibition of CYP51 in Candida albicans SC5314 assessed as lanosterol level at 4 ug/ml by GC-MS analysis (reference value: 1.7 %); design: scale not given: the % may be the effect or the level left; conditions: at 4 µg/mL
# [21] = molecular target: T1, Lanosterol 14-alpha demethylase; assay: Inhibition of CYP51 in Candida albicans SC5314 assessed as obtusifoliol level at 4 ug/ml by GC-MS analysis (reference value: 0 %); design: scale not given: the % may be the effect or the level left; conditions: at 4 µg/mL
# [22] = molecular target: T1, Lanosterol 14-alpha demethylase; assay: Inhibition of CYP51 in Candida albicans SC5314 assessed as lanosterol level at 1 ug/ml by GC-MS analysis (reference value: 1.7 %); design: scale not given: the % may be the effect or the level left; conditions: at 1 µg/mL
# [23] = molecular target: T1, Lanosterol 14-alpha demethylase; assay: Inhibition of CYP51 in Candida albicans SC5314 assessed as ergosterol level at 2 ug/ml by GC-MS analysis (reference value: 98.3 %); design: scale not given: the % may be the effect or the level left; conditions: at 2 µg/mL
# [24] = molecular target: T1, Lanosterol 14-alpha demethylase; assay: Inhibition of CYP51 in Candida albicans SC5314 assessed as eburicol level at 2 ug/ml by GC-MS analysis (reference value: 0 %); design: scale not given: the % may be the effect or the level left; conditions: at 2 µg/mL
# [25] = molecular target: T1, Lanosterol 14-alpha demethylase; assay: Inhibition of CYP51 in Candida albicans SC5314 assessed as obtusifoliol level at 1 ug/ml by GC-MS analysis (reference value: 0 %); design: scale not given: the % may be the effect or the level left; conditions: at 1 µg/mL
# [26] = molecular target: T1, Lanosterol 14-alpha demethylase; assay: Inhibition of CYP51 in Candida albicans SC5314 assessed as eburicol level at 4 ug/ml by GC-MS analysis (reference value: 0 %); design: scale not given: the % may be the effect or the level left; conditions: at 4 µg/mL
# [27] = molecular target: T1, Lanosterol 14-alpha demethylase; assay: Inhibition of CYP51 in Candida albicans SC5314 assessed as lanosterol level at 2 ug/ml by GC-MS analysis (reference value: 1.7 %); design: scale not given: the % may be the effect or the level left; conditions: at 2 µg/mL
# [28] = molecular target: T1, Lanosterol 14-alpha demethylase; assay: Inhibition of CYP51 in Candida albicans SC5314 assessed as obtusifoliol level at 2 ug/ml by GC-MS analysis (reference value: 0 %); design: scale not given: the % may be the effect or the level left; conditions: at 2 µg/mL
# [29] = molecular target: T1, Lanosterol 14-alpha demethylase; assay: Inhibition of CYP51 in Candida albicans SC5314 assessed as ergosterol level at 4 ug/ml by GC-MS analysis (reference value: 98.3 %); design: scale not given: the % may be the effect or the level left; conditions: at 4 µg/mL
# [30] = molecular target: T1, Lanosterol 14-alpha demethylase; assay: Inhibition of CYP51 in Candida albicans SC5314 assessed as ergosterol level at 1 ug/ml by GC-MS analysis (reference value: 98.3 %); design: scale not given: the % may be the effect or the level left; conditions: at 1 µg/mL
# Candida albicans [31] = assay: Antifungal activity against Candida albicans CPCC 400616 assessed as inhibition of fungal growth; format: functional
# Candida albicans [32] = assay: Antifungal activity against Candida albicans ATCC SC5314 assessed as inhibition of fungal growth; format: functional
Compound,MIC (Nakaseomyces glabratus),Activity [4],IC50 (HL-60),MIC (Candida tropicalis),MIC (Candida parapsilosis),IC50 (MDA-MB-231),Activity [6],IC50 (PC-3),MIC (Aspergillus fumigatus),MIC (Candida albicans [7]),MIC (Cryptococcus neoformans),Activity [11],MIC (Pichia kudriavzevii),MIC (Candida albicans [13]),Activity [15],other results
OC(C[Se]Cc1ccccc1Br)(Cn1cncn1)c1ccc(F)cc1F (configuration not stated),4 µg/mL,19.2%,18.4 µM,0.25 µg/mL,0.125 µg/mL,17.9 µM,11.1%,15.6 µM,2 µg/mL,0.01 µg/mL,1 µg/mL,66.2%,0.25 µg/mL,0.25 µg/mL,3.5%,Activity [1]: 0.48%; Activity [2]: 66.7%; Activity [3]: 21.1%; Activity [5]: 19.6%; Activity [8]: 11.9%; Activity [9]: 0.18%; Activity [10]: 69.3%; Activity [12]: 2.1%; Activity [14]: 69.2%; Activity [16]: 9.28%; Activity [17]: 11.3%; Activity [18]: 20.3%
COc1ccc([Se]CC(O)(Cn2cncn2)c2ccc(F)cc2F)cc1 (configuration not stated),0.5 µg/mL,19.3%,12.1 µM,0.125 µg/mL,0.125 µg/mL,18.8 µM,11.8%,26.7 µM,16 µg/mL,0.02 µg/mL,0.03 µg/mL,65.7%,0.5 µg/mL,0.25 µg/mL,0.38%,Activity [19]: 64.3%; Activity [20]: 19.1%; Activity [21]: 11.2%; Activity [22]: 18.4%; Activity [23]: 3.6%; Activity [24]: 64.7%; Activity [25]: 10.1%; Activity [26]: 64.5%; Activity [27]: 18.2%; Activity [28]: 10.8%; Activity [29]: 1.4%; Activity [30]: 4.3%
Cc1ccccc1[Se]C(Cn1ccnc1)c1ccc(Cl)cc1 (configuration not stated),–,–,–,–,–,–,–,–,–,–,–,–,–,–,–,MFC (Candida albicans [31]): 0.25 µg/mL; MIC (Candida albicans [31]): 0.02 µg/mL; MIC (Candida albicans [32]): 0.03 µg/mL
